Test results taken from PMC8069289 (Molecules, 2021).
“Also recorded” adds a separate entry of the source. Marks after values point to notes of the source that are not given here.

Legend:
Drosophila melanogaster [1] = assay: Toxicity assay, survival of larvae to adults (simple treatment)
Experimental: Toxicity was assayed according to our standard protocols. […] Tested groups consisted of larvae fed with Drosophila Instant Medium (Formula 4–24, Carolina Biological Supply, Burlington, NC, USA) supplemented with the assessed compounds concentrations. Emerging adults of all groups were counted and toxicity was determined as the percentage of hatched individuals in each treatment compared with the negative control.

Drosophila melanogaster [2] = assay: Antigenotoxicity, wing spot test, combined treatment with hydrogen peroxide; format: in vivo; design: key to Total Spots, statistical diagnosis (Kastenbaum-Bowman test): * (positive); Δ (negative); β (inconclusive) vs. respective positive control
Experimental: All inconclusive and positive results (p > 0.05) were analysed with the nonparametric U-test of Mann, Whitney and Wilcoxon (α = β = 0.05). Anter et al. described the antigenotoxicity method conducted in D. melanogaster. […] Single and twin spots per wing were also recorded and compared with the concurrent negative control as described before. Finally, the inhibition percentages (IP) for the combined treatments were calculated as described by Abraham: IP = [(genotoxin alone-combined treatment)/genotoxin alone] × 100.

[3] = tested on: Alu M1 repetitive sequences of HL-60 cells; assay: Methylation status by qMSP, Alu M1; format: cell-based, human; settings: HL-60, 5 h, 11 mM GLU
Experimental: Then, DNA was extracted similarly to previously described DNA fragmentation assay. After that, the DNA was converted with bisulphite (EZ DNA Methylation-Gold™ Kit, Zymo Research, Irvine, CA, USA). Bisulphite-modified DNA was used for fluorescence-based real-time quantitative Methylation-Specific PCR (qMSP) using 5 µM of each forward and reverse primer (Isogen Life Science BV, Utrecht, The Netherlands), 2 µL of iTaq™ Universal SYBR® Green Supermix (Bio-Rad Laboratories, Inc., Hercules, CA, USA); it contains antibody-mediated hot-start iTaq DNA polymerase, dNTPs, MgCl2, SYBR® Green I dye, enhancers, stabilizers and a blend of passive reference dyes including ROX and fluorescein) and 25 ng of bisulphite converted genomic DNA.
PCR conditions included initial denaturalisation at 95 °C for 3 min and amplification which consisted of 45 cycles at 95 °C for 10 s, 60 °C for 15 s and 72 °C for 15 s, taking picture at the end of each elongation cycle. After that, melting curve was determined increasing 0.5 °C each 0.05 s from 60 °C to 95 °C and taking pictures.
QMSP was carried out in 48 well plates in MiniOpticon Real-Time PCR System (MJ Mini Personal Thermal Cycler, Bio-Rad) and were analysed by Bio-Rad CFX Manager 3.1 Software. The housekeeping Alu-C4 was used as a reference to correct for total DNA input. […] Each sample was analysed in triplicate. […]

[4] = tested on: human umbilical endothelial cells; settings: 30 mM GLU; cited from earlier work
Drosophila melanogaster [5] = assay: Chronic treatments: lifespan and healthspan assays; format: in vivo; settings: for Healthspan (80th Percentile) / Mean Lifespan: chronic, mean ±SE
Experimental: Flies used in the lifespan assays show the same genetic background those used in the genotoxicity assays in order to compare both result. The treated adults consisted of the F1 progeny from mwh and flr^3 parental strains produced by a 24 h eggs-lying in yeast medium. The same compounds and concentrations as in the toxicity/genotoxicity experiments were assayed. Lifespan assays were carried out at 25 °C according to the procedure described by Fernandez-Bedmar et al.. Briefly, synchronized 72 ± 12-h-old trans-heterozygous larvae were washed in distilled water, collected and transferred in groups of 100 individuals into test vials containing 0.85 g Drosophila Instant Medium and 4 mL of the different concentrations of the compounds to be assayed. Emerged adults from pupae were collected under CO2 anaesthesia and placed in groups of 25 individuals of the same sex into sterile vials containing 0.21 g Drosophila Instant Medium and 1 mL of different concentrations of the compounds to be tested. Flies were chronically treated during all their life. The number of survivors was determined twice a week in three different replicates.

[6] = GLU 11 mM + 0.15 M H2O2, No. of spots in parentheses
[7] = GLU 350 mM + 0.15 M H2O2, No. of spots in parentheses
[8] = GLU 2.7 mM vs concurrent water control
[9] = GLU 11 mM vs concurrent water control
[10] = GLU 21.86 mM vs concurrent water control
[11] = GLU 87.5 mM vs concurrent water control
[12] = GLU 350 mM vs concurrent water control

OC[C@H]1OC(O)[C@H](O)[C@@H](O)[C@@H]1O (some centres unmarked) [GLU, Glucose]
Survival (%) Simple Treatment (Drosophila melanogaster [1]; GLU 2.7 mM): 98% | Survival (%) Simple Treatment (Drosophila melanogaster [1]; GLU 11 mM): 92.65% | Survival (%) Simple Treatment (Drosophila melanogaster [1]; GLU 21.86 mM): 90.32% | Survival (%) Simple Treatment (Drosophila melanogaster [1]; GLU 87.5 mM): 70.3 * % | Survival (%) Simple Treatment (Drosophila melanogaster [1]; GLU 350 mM): 65 * % | IP (%) inhibition percentage (Drosophila melanogaster [2]; GLU 11 mM + 0.15 M H2O2): 76.5% | Twin Spots m = 5 (Drosophila melanogaster [2]; GLU 11 mM + 0.15 M H2O2): 0 clones per wing | Large Simple Spots (>2 Cells) m = 5 (Drosophila melanogaster [2]; [6]): 0.025 (1) clones per wing | Small Single Spots (1–2 Cells) m = 2 (Drosophila melanogaster [2]; [6]): 0.075 (3) clones per wing | Total Spots m = 2 (Drosophila melanogaster [2]; [6]): 0.1 (4) clones per wing | Total Spots, statistical diagnosis (Kastenbaum-Bowman test) (Drosophila melanogaster [2]; GLU 11 mM + 0.15 M H2O2 vs positive control): * | IP (%) inhibition percentage (Drosophila melanogaster [2]; GLU 350 mM + 0.15 M H2O2): 52.9% | Twin Spots m = 5 (Drosophila melanogaster [2]; GLU 350 mM + 0.15 M H2O2): 0 clones per wing | Large Simple Spots (>2 Cells) m = 5 (Drosophila melanogaster [2]; [7]): 0.025 (1) clones per wing | Small Single Spots (1–2 Cells) m = 2 (Drosophila melanogaster [2]; [7]): 0.175 (7) clones per wing | Total Spots m = 2 (Drosophila melanogaster [2]; [7]): 0.2 (8) clones per wing | Total Spots, statistical diagnosis (Kastenbaum-Bowman test) (Drosophila melanogaster [2]; GLU 350 mM + 0.15 M H2O2 vs positive control): * | methylation status of Alu sequences [3]: hypermethylated; also recorded: significantly increased | cytotoxicity [4]: cytotoxicity was demonstrated | increase of the quality of life (healthspan) (Drosophila melanogaster [5]; 350 mM GLU): 34% | Healthspan Difference (%) (Drosophila melanogaster [5]; [8]): −4.5% | Mean Lifespan Difference (%) (Drosophila melanogaster [5]; [8]): 2.65% | Healthspan (80th Percentile) (Drosophila melanogaster [5]; GLU 2.7 mM): 31.14 ± 1.53 days | Mean Lifespan (Drosophila melanogaster [5]; GLU 2.7 mM): 61.25 ± 2.12 days | Healthspan Difference (%) (Drosophila melanogaster [5]; [9]): 25.65% | Mean Lifespan Difference (%) (Drosophila melanogaster [5]; [9]): 8.76% | Healthspan (80th Percentile) (Drosophila melanogaster [5]; GLU 11 mM): 41 ± 3.4 days | Mean Lifespan (Drosophila melanogaster [5]; GLU 11 mM): 64.9 ± 2.05 days | Healthspan Difference (%) (Drosophila melanogaster [5]; [10]): −5.8% | Mean Lifespan Difference (%) (Drosophila melanogaster [5]; [10]): 5.9% | Healthspan (80th Percentile) (Drosophila melanogaster [5]; GLU 21.86 mM): 30.66 ± 3.62 days | Mean Lifespan (Drosophila melanogaster [5]; GLU 21.86 mM): 63.21 ± 2.08 days | Healthspan Difference (%) (Drosophila melanogaster [5]; [11]): −8.4% | Mean Lifespan Difference (%) (Drosophila melanogaster [5]; [11]): 1.39% | Healthspan (80th Percentile) (Drosophila melanogaster [5]; GLU 87.5 mM): 29.9 ± 1.96 days | Mean Lifespan (Drosophila melanogaster [5]; GLU 87.5 mM): 60.5 ± 2.5 days | Healthspan Difference (%) (Drosophila melanogaster [5]; [12]): −34% | Mean Lifespan Difference (%) (Drosophila melanogaster [5]; [12]): −1.2% | Healthspan (80th Percentile) (Drosophila melanogaster [5]; GLU 350 mM): 21.5 ± 0.76 days | Mean Lifespan (Drosophila melanogaster [5]; GLU 350 mM): 59 ± 3.1 days | lifespan compared with concurrent control (Drosophila melanogaster [5]; all tested concentrations): did not significantly differ
